Data reported in patent US12023319B2, “Carboxylic acid aromatic amides” (priority 2016, dated 2024).

Molecular target: T1, human Bradykinin B1 receptor (Homo sapiens, UniProt P46663)
T1 construct: host or cells: CHO-K1
T1 sequence (P46663 1-353): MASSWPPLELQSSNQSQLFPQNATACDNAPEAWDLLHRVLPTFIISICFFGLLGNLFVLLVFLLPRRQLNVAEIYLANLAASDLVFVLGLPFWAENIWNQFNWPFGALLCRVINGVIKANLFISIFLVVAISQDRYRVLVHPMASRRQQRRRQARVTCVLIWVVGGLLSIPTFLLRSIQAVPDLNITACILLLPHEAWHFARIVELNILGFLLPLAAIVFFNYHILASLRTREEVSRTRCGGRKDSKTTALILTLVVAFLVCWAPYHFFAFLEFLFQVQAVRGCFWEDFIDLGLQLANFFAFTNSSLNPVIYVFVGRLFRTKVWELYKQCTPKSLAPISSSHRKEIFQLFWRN
Assay: Calcium flux assay (FLIPR), CHO-K1 cells expressing human Bradykinin B1 receptor, absence of 0.1% BSA (hB1 free IC50)
Format: cell-based
Conditions: absence of 0.1% BSA in assay buffer
Protocol: The potency to inhibit the Bradykinin B1 receptor was determined for the Compound Examples of this invention in a cell-based fluorescent calcium-mobilisation assay. The assay measures the ability of Compound Examples to inhibit Bradykinin B1 receptor agonist-induced increase of intracellular free Ca^2+ in the cell line expressing Bradykinin B1 receptor. Specifically, calcium indicator-loaded cells are pre-incubated in the absence or presence of different concentrations of Compound Examples followed by the stimulation with a selective Bradykinin B1 receptor agonist peptide. The change of the intracellular Ca^2+ concentration is monitored with a fluorescent plate reader FLIPR^TETRA® (Molecular Devices).
Calcium Flux Assays (FLIPR) with Cells Expressing Human Bradykinin B1 Receptor (hB1)
CHO-K1 cell line expressing human Bradykinin B1 receptor is purchased from Euroscreen (Gosselies, Belgium, with reference name hB1-D1). The cells are grown in Nutrient Mixture Ham's F12 (Sigma) containing 10% Foetal bovine serum (Sigma) and 400 μg/mL G418 (Sigma), 5 μg/mL puromycin (Sigma).
The effect of BSA on the potency of endothelin receptor antagonists have been described in the prior art (Wu-Wong, J. R. et al. (1997), JPET 281: 791-798). The teaching can be applied in analogy to testing the potency of Bradykinin B1 receptor antagonist in the FLIPR assays.
For the calcium flux assay, 80% confluent cells are detached from the culture vessels with Versene (Gibco), and seeded into 384-well plates (Cell binding Surface; Corning, NY; #3683) at a density of 15,000 cells per well. Cells are seeded in a volume of 50 μL in medium without antibiotics and incubated overnight in a humidified atmosphere with 5% CO2 at 37° C. […] The calcium indicator loaded cells are incubated at 37° C. for 2 hrs. Extracellular dye is then removed and each well is filled with 45 μL of assay buffer. Cell plates are kept in dark until used. Compound examples are assayed at 8 concentrations in triplicate. Serial 10-fold dilutions in 100% DMSO are made at a 100-times higher concentration than the final concentration, and then diluted 1:10 in assay buffer. 5 μL of each diluted compound is added to the well of cell plates (yielding final concentration with 1% DMSO), and incubated for 30 min at 28° C. before the addition of Bradykinin B1 receptor agonist on the FLIPR instrument.
The addition of agonist 20 μl per well to the assay plate is carried out on the FLIPR instrument while continuously monitoring Ca2+-dependent fluorescence at 538 nm. A peptide antagonist Lys-(Des-Arg-Leu)-Bradykinin (Bachem, Brackley) at 20 µM is used to determine the full inhibition as control.
Peak fluorescence is used to determine the response to agonist obtained at each concentration of Compound Examples by the following equation: % Response=100*(RFU(compound)−RFU(control))/(RFU(DMSO)−RFU(control))
RFU means relative fluorescence units.
Control means full inhibition by the peptide antagonist Lys-(Des-Arg-Leu)-Bradykinin at 20 µM.
The response values are plotted against the logarithm of the compound concentrations. The Compound Examples are tested in triplicates per plate and mean values are plotted in Excel XLfit to determine IC50 values, percentage of maximal inhibition and the Hill slopes.

SMILES | IC50 [nM]
O=C(O)c1cc(NC(=O)C2(c3cc(F)cc(Cl)c3)CC2)ccc1-c1cnn(C2CCC2)c1 [Example 57, 5-({[1-(3-Chloro-5-fluorophenyl)cyclopropyl]carbonyl}amino)-2-(1-cyclobutyl-1H-pyrazol-4-yl)benzoic acid] | 840
O=C(O)c1cc(NC(=O)C2(c3ccc(Cl)cn3)CC2)ccc1-c1cnn(C2CCC2)c1 [Example 58, 5-({[1-(5-Chloropyridin-2-yl)cyclopropyl]carbonyl}amino)-2-(1-cyclobutyl-1H-pyrazol-4-yl)benzoic acid] | 360
O=C(O)c1cc(NC(=O)C2(c3c(F)cccc3F)CC2)ccc1-c1cnn(C2CCC2)c1 [Example 59, 2-(1-Cyclobutyl-1H-pyrazol-4-yl)-5-({[1-(2,6-difluorophenyl)cyclopropyl]carbonyl}amino)benzoic acid] | 1100
O=C(O)c1cc(NC(=O)C2(c3cc(C(F)(F)F)ccc3F)CC2)ccc1-c1cnn(C2CCC2)c1 [Example 60, 2-(1-Cyclobutyl-1H-pyrazol-4-yl)-5-[({1-[2-fluoro-5-(trifluoromethyl)phenyl]cyclopropyl}carbonyl)amino]benzoic acid] | 62
O=C(O)c1cc(NC(=O)C2(c3ccc(F)cc3Cl)CC2)ccc1-c1cnn(C2CCC2)c1 [Example 61, 5-({[1-(2-Chloro-4-fluorophenyl)cyclopropyl]carbonyl}amino)-2-(1-cyclobutyl-1H-pyrazol-4-yl)benzoic acid] | 200
O=C(O)c1cc(NC(=O)C2(c3c(F)cccc3Cl)CC2)ccc1-c1cnn(C2CCC2)c1 [Example 62, 5-({[1-(2-Chloro-6-fluorophenyl)cyclopropyl]carbonyl}amino)-2-(1-cyclobutyl-1H-pyrazol-4-yl)benzoic acid] | 89
COc1ccc(F)c(C2(C(=O)Nc3ccc(-c4cnn(C5CCC5)c4)c(C(=O)O)c3)CC2)c1 [Example 63, 2-(1-Cyclobutyl-1H-pyrazol-4-yl)-5-({[1-(2-fluoro-5-methoxyphenyl)cyclopropyl]carbonyl}amino)benzoic acid] | 3000
CC1(C)CC1(C(=O)Nc1ccc(-c2cnn(C3CCC3)c2)c(C(=O)O)c1)c1ccccc1F (stereo not drawn) [Example 64, 2-(1-Cyclobutyl-1H-pyrazol-4-yl)-5-({[1-(2-fluorophenyl)-2,2-dimethylcyclopropyl]carbonyl}amino)benzoic acid] | 1300
O=C(O)c1cc(NC(=O)C2(c3ccc(OC(F)(F)F)cc3F)CC2)ccc1-n1cc(C(F)(F)F)cn1 [Example 65, 5-[({1-[2-Fluoro-4-(trifluoromethoxy)phenyl]cyclopropyl}carbonyl)amino]-2-[4-(trifluoromethyl)-1H-pyrazol-1-yl]benzoic acid] | 2600
CC(C)(C)c1ccn(-c2ccc(NC(=O)C3(c4ccc(OC(F)(F)F)cc4F)CC3)cc2C(=O)O)n1 [Example 66, 2-(3-tert-Butyl-1H-pyrazol-1-yl)-5-[({1-[2-fluoro-4-(trifluoromethoxy)phenyl]cyclopropyl}carbonyl)amino]benzoic acid] | 2100
CCn1cc(-c2ccc(NC(=O)C3(c4ccc(C(F)(F)F)cc4F)CC3)cc2C(=O)O)cn1 [Example 68, 2-(1-Ethyl-1H-pyrazol-4-yl)-5-[({1-[2-fluoro-4-(trifluoromethyl)phenyl]cyclopropyl}carbonyl)amino]benzoic acid] | 36
CCn1cc(-c2ccc(NC(=O)C3(c4ccc(OC(F)(F)F)cc4F)CC3)cc2C(=O)O)cn1 [Example 69, 2-(1-Ethyl-1H-pyrazol-4-yl)-5-[({1-[2-fluoro-4-(trifluoromethoxy)phenyl]cyclopropyl}carbonyl)amino]benzoic acid] | 28
CC(C)(C)n1cc(-c2ccc(NC(=O)C3(c4ccc(C(F)(F)F)cc4F)CC3)cc2C(=O)O)cn1 [Example 72, 2-(1-tert-Butyl-1H-pyrazol-4-yl)-5-[({1-[2-fluoro-4-(trifluoromethyl)phenyl]cyclopropyl}carbonyl)amino]benzoic acid] | 28
CC(C)(C)Cn1cc(-c2ccc(NC(=O)C3(c4ccc(C(F)(F)F)cc4F)CC3)cc2C(=O)O)cn1 [Example 76, 2-[1-(2,2-Dimethylpropyl)-1H-pyrazol-4-yl]-5-[({1-[2-fluoro-4-(trifluoromethyl)phenyl]cyclopropyl}carbonyl)amino]benzoic acid] | 11
O=C(O)c1cc(NC(=O)C2(c3ccc(OC(F)(F)F)cc3)CC2)ccc1-c1cnn(C2CCC2)c1 [Example 78, 2-(1-Cyclobutyl-1H-pyrazol-4-yl)-5-[({1-[4-(trifluoromethoxy)phenyl]cyclopropyl}carbonyl)amino]benzoic acid] | 300
O=C(O)c1cc(NC(=O)C2(c3ccc(C(F)(F)F)c(F)c3)CC2)ccc1-c1cnn(C2CCC2)c1 [Example 79, 2-(1-Cyclobutyl-1H-pyrazol-4-yl)-5-[({1-[3-fluoro-4-(trifluoromethyl)phenyl]cyclopropyl}carbonyl)amino]benzoic acid] | 60
Cc1ccc(C2(C(=O)Nc3ccc(-c4cnn(C5CCC5)c4)c(C(=O)O)c3)CC2)c(F)c1 [Example 80, 2-(1-Cyclobutyl-1H-pyrazol-4-yl)-5-({[1-(2-fluoro-4-methylphenyl)cyclopropyl]carbonyl}amino)benzoic acid] | 120
Cc1ccc(C2(C(=O)Nc3ccc(-c4cnn(C5CCC5)c4)c(C(=O)O)c3)CC2)cc1F [Example 81, 2-(1-Cyclobutyl-1H-pyrazol-4-yl)-5-({[1-(3-fluoro-4-methylphenyl)cyclopropyl]carbonyl}amino)benzoic acid] | 680
O=C(O)c1cc(NC(=O)C2(c3ccc(F)cn3)CC2)ccc1-c1cnn(C2CCC2)c1 [Example 82, 2-(1-Cyclobutyl-1H-pyrazol-4-yl)-5-({[1-(5-fluoropyridin-2-yl)cyclopropyl]carbonyl}amino)benzoic acid] | 2500
O=C(O)c1cc(NC(=O)C2(c3ccc(C(F)(F)F)cc3F)CC2)ccc1-c1cnn([C@@H]2CCOC2)c1 [Example 83, 5-[({1-[2-Fluoro-4-(trifluoromethyl)phenyl]cyclopropyl}carbonyl)amino]-2-{1-[(3R)-tetrahydrofuran-3-yl]-1H-pyrazol-4-yl}benzoic acid] | 560
O=C(O)c1cc(NC(=O)C2(c3ccc(C(F)(F)F)cc3F)CC2)ccc1-c1cnn([C@H]2CCOC2)c1 [Example 84, 5-[({1-[2-Fluoro-4-(trifluoromethyl)phenyl]cyclopropyl}carbonyl)amino]-2-{1-[(3S)-tetrahydrofuran-3-yl]-1H-pyrazol-4-yl}benzoic acid] | 570
CC(C)n1cc(-c2c(F)cc(NC(=O)C3(c4ccc(C(F)(F)F)cc4)CC3)cc2C(=O)O)cn1 [Example 85, 3-Fluoro-2-[1-(propan-2-yl)-1H-pyrazol-4-yl]-5-[({1-[4-(trifluoromethyl)phenyl]cyclopropyl}carbonyl)amino]benzoic acid] | 71
CC(C)n1cc(-c2c(F)cc(NC(=O)C3(c4ccc(OC(F)(F)F)cc4)CC3)cc2C(=O)O)cn1 [Example 86, 3-Fluoro-2-[1-(propan-2-yl)-1H-pyrazol-4-yl]-5-[({1-[4-(trifluoromethoxy)phenyl]cyclopropyl}carbonyl)amino]benzoic acid] | 69
Cc1ccc(C2(C(=O)Nc3cc(F)c(-c4cnn(C(C)C)c4)c(C(=O)O)c3)CC2)c(F)c1 [Example 87, 3-Fluoro-5-({[1-(2-fluoro-4-methylphenyl)cyclopropyl]carbonyl}amino)-2-[1-(propan-2-yl)-1H-pyrazol-4-yl]benzoic acid] | 38
